Patent publication US20170150719A1, “FUNGICIDAL PYRAZOLES AND THEIR MIXTURES” (E I DU PONT DE NEMOURS AND COMPANY, priority 2010, published 2017)

Tests used:
Phytophthora infestans = assay: whole plant or invertebrate; format: in vivo; settings: tomato late blight; 100 = 100% disease control, 0 = no disease control relative to the controls
Septoria tritici = assay: Test F: wheat leaf blotch, preventive spray on wheat seedlings, visual disease rating; format: in vivo; settings: 100 = 100% disease control, 0 = no disease control relative to the controls
From the text: A hyphen (-) indicates no test results.

[1] = test system: Puccinia recondita f. sp. tritici; assay: Test H: wheat leaf rust, preventive spray on wheat seedlings, visual disease rating; settings: wheat leaf rust, sprayed the day before inoculation; 100 = 100% disease control, 0 = no disease control
Botrytis cinerea = assay: Test A: tomato Botrytis, preventive spray on tomato seedlings, visual disease rating; settings: tomato Botrytis; 100 = 100% disease control, 0 = no disease control relative to the controls
Alternaria solani = assay: Test B: tomato early blight, preventive spray on tomato seedlings, visual disease rating; settings: tomato early blight; 100 = 100% disease control, 0 = no disease control relative to the controls
[2] = test system: Blumeria graminis f. sp. tritici; assay: Test I: wheat powdery mildew, preventive spray on wheat seedlings, visual disease rating; settings: wheat powdery mildew; 100 = 100% disease control, 0 = no disease control relative to the controls
Protocol: (§1) General protocol for preparing test suspensions for Tests A-I: the test compounds were first dissolved in acetone in an amount equal to 3% of the final volume and then suspended at the desired concentration (in ppm) in acetone and purified water (50/50 mix by volume) containing 250 ppm of the surfactant Trem® 014 (polyhydric alcohol esters). The resulting test suspensions were then used in Tests A-I. Each test was conducted in triplicate, and the results were averaged. Spraying a 200 ppm test suspension to the point of run-off on the test plants was the equivalent of a rate of about 800 g/ha. Unless otherwise indicated, the rating values indicate a 200 ppm test suspension was used. (An asterisk “*” next to the rating value indicates a 40 ppm test suspension was used.)
The test suspension was sprayed to the point of run-off on wheat seedlings. The following day the seedlings were inoculated with a spore dust of Blumeria graminis f. sp. tritici (also known as Erysiphe graminis f. sp. tritici, the causal agent of wheat powdery mildew) and incubated in a growth chamber at 20° C. for 8 days, after which time visual disease ratings were made.

Septoria nodorum = assay: Test E: Septoria glume blotch, preventive spray on wheat seedlings, visual disease rating; settings: Septoria glume blotch; 100 = 100% disease control, 0 = no disease control relative to the controls
Rhizoctonia solani = assay: Test D: turf brown patch, preventive spray on creeping bent grass seedlings, disease rating; settings: 100 = 100% disease control, 0 = no disease control relative to the controls
Protocol: as §1
The test suspension was sprayed to the point of run-off on creeping bent grass (Agrostis sp.) seedlings. The following day the seedlings were inoculated with a bran and mycelial slurry of Rhizoctonia solani (the causal agent of turf brown patch) and incubated in a saturated atmosphere at 27° C. for 48 h, and then moved to a growth chamber at 27° C. for 3 days, after which time disease ratings were made.

For `Cc1nn(C)c(Nc2ccc(F)cc2F)c1-c1ccc(F)cc1Cl` [compound 2], the “Test C rating (disease control)” value (Phytophthora infestans) was 0%, the “Test F rating (disease control)” value (Septoria tritici) was 100% and the “Test H rating (disease control)” value [1] was 100%. The “Test A rating (disease control)” value (Botrytis cinerea) was 99%, the “Test B rating (disease control)” value (Alternaria solani) was 100% and the “Test I rating (disease control)” value [2] was 99%. The “Test E rating (disease control)” value (Septoria nodorum) was 64% and the “Test D rating (disease control)” value (Rhizoctonia solani) was 98%.
